Assay results as given in patent US9249137B2, “Dicarboximide derivatives of berbamine, the preparation and use thereof” (HANGZHOU BENSHENG PHARMACEUTICAL CO., LTD., priority 2010, dated 2016).
Read-outs that look alike come from different tables or passages of the source.

Columns and labels:
CaM = CaM (Homo sapiens, UniProt P0DP23); conditions: relative to berbamine; cited from earlier work
[1] = test system: human leukemia Jurkat cells; conditions: cited from earlier work
[2] = test system: normal human peripheral blood leucocytes; conditions: concentration range 0.5 ug/mL to 10 ug/mL; cited from earlier work
[3] = test system: red cell membrane CaM-independent Ca^2++Mg^2+ ATPase; conditions: relative to berbamine; cited from earlier work
[4] = test system: human K562 leukemia cell line (chronic myeloid leukemia, CML); test: MTT growth inhibition of leukemia cells, 72 hours; type: cell-based; conditions: compared with berbamine itself
Excerpt: (§1) Leukemia cell lines: human K562 leukemia cell line (chronic myeloid leukemia, CML), K562/adr (drug-resistant chronic myeloid leukemia (CML), NB4 (acute promyelocytic leukemia, AML), Kasumi-1 (acute myeloid leukemia M2 type, AML-M2), Jurkat (acute lymphoblastic leukemia, ALL), H9 (acute lymphoblastic leukemia, ALL).
(§2) Obtaining 6000 well-growing leukemia cells and inoculating them into wells of a 96-well cell culture plate. The culture medium is the 1640 cell culture medium containing 10% fetal bovine serum. After adding of the berbamine derivatives of different concentrations and mixing uniformly, the plate is placed in a carbon dioxide cell incubator (5% CO2) at 37° C. and incubated for 72 hours. Then the viable cell concentration is determined by the MTT method.

[5] = test system: K562/adr (drug-resistant chronic myeloid leukemia); test: MTT growth inhibition of leukemia cells, 72 hours; type: cell-based, human; conditions: compared with berbamine itself
Excerpt: as §1, §2

[6] = test system: RPMI8226 (multiple myeloma); test: MTT growth inhibition of multiple myeloma cells, 72 hours; type: cell-based, human; conditions: compared with berbamine itself
Procedure: Multiple myeloma and lymphoma cell lines: U266 (multiple myeloma), RPMI8226 (multiple myeloma), and DOHH2 (lymphoma).
as §2, with “aforesaid tumor” for “leukemia”, “adding” for “adding of”

[7] = test system: Becap37 (human breast cancer cell); test: MTT growth inhibition of human solid tumor cells, 72 hours; type: cell-based; conditions: compared with berbamine itself
Excerpt: (§3) Human solid tumor cell lines: HepG2 (human hepatocellular carcinoma, HCC), A549 (human lung cancer), MCF-7 (breast cancer), PANC-1 (pancreatic cancer), PC-3 (prostate cancer), MG63 (osteosarcomas), AGS (gastric cancer), Huh7 (human hepatoma cell), Becap37 (human breast cancer cell), Hela (human cervical cancer cell), RKO (human colon adenocarcinoma cell), SW620 (human colon adenocarcinoma cells), SW480 (human colon cancer cell), MGC 803 (human gastric cancer cell).
as §2, with “4000” for “6000”, “human solid tumor” for “leukemia”, “DMEM High Glucose” for “the 1640”, “adding” for “adding of”, “method, and the cell viability (%) after drug treatment is calculated. In this experiment, the cell viability of control group (not treated with any compound) is set as 100%.” for “method.”

[8] = test system: HepG2 (human hepatocellular carcinoma, HCC); test: as above; type: cell-based; conditions: compared with berbamine itself
Excerpt: as §3
as §2, with “4000” for “6000”, “human solid tumor” for “leukemia”, “DMEM High Glucose” for “the 1640”, “adding” for “adding of”, “method, and the cell viability (%) after drug treatment is calculated. In this experiment, the cell viability of control group (not treated with any compound) is set as 100%.” for “method.”

MCF-7 (breast cancer) = test: as above; type: cell-based; conditions: compared with berbamine itself
Excerpt: as §3
as §2, with “4000” for “6000”, “human solid tumor” for “leukemia”, “DMEM High Glucose” for “the 1640”, “adding” for “adding of”, “method, and the cell viability (%) after drug treatment is calculated. In this experiment, the cell viability of control group (not treated with any compound) is set as 100%.” for “method.”

MG63 (osteosarcomas) = test: as above; type: cell-based; conditions: compared with berbamine itself
Excerpt: as §3
as §2, with “4000” for “6000”, “human solid tumor” for “leukemia”, “DMEM High Glucose” for “the 1640”, “adding” for “adding of”, “method, and the cell viability (%) after drug treatment is calculated. In this experiment, the cell viability of control group (not treated with any compound) is set as 100%.” for “method.”

[9] = test system: MGC 803 (human gastric cancer cell); test: as above; type: cell-based; conditions: compared with berbamine itself
Excerpt: as §3
as §2, with “4000” for “6000”, “human solid tumor” for “leukemia”, “DMEM High Glucose” for “the 1640”, “adding” for “adding of”, “method, and the cell viability (%) after drug treatment is calculated. In this experiment, the cell viability of control group (not treated with any compound) is set as 100%.” for “method.”

[10] = test system: PANC-1 (pancreatic cancer); test: as above; type: cell-based; conditions: compared with berbamine itself
Excerpt: as §3
as §2, with “4000” for “6000”, “human solid tumor” for “leukemia”, “DMEM High Glucose” for “the 1640”, “adding” for “adding of”, “method, and the cell viability (%) after drug treatment is calculated. In this experiment, the cell viability of control group (not treated with any compound) is set as 100%.” for “method.”

CCOCCCCOc1ccc2cc1Oc1ccc(cc1)C[C@H]1c3cc(c(OC)cc3CCN1C)Oc1c(OC)c(OC)cc3c1[C@@H](C2)N(C)CC3 [EBB, [O-(4-ethoxy)-butyl]-berbamine]
specific coefficient as CaM antagonist, higher than that of berbamine (CaM): 6.5 fold

COc1cc2c3cc1Oc1c(OC)c(OC)cc4c1[C@@H](Cc1ccc(O)c(c1)Oc1ccc(cc1)C[C@@H]3N(C)CC2)N(C)CC4 [BBM, 6,6′,7-trimethoxy-2,2′-dimethylberbaman-12-ol]
cell viability rate ([1]; drug concentration 0.5 ug/mL): 93.69% | cell viability rate ([1]; drug concentration 10 ug/mL): 14.85% | cytotoxicity on normal human peripheral blood leucocytes [2]: no obvious cytotoxicity

O-Dansyl berbamine [DB]
inhibitory activity on red cell membrane CaM-independent Ca^2++Mg^2+ ATPase, stronger than that of berbamine [3]: 25 fold

COc1cc2c3cc1Oc1c(OC)c(OC)cc4c1[C@@H](Cc1ccc(OCCCCCCCN5C(=O)c6ccccc6C5=O)c(c1)Oc1ccc(cc1)C[C@@H]3N(C)CC2)N(C)CC4 [BS-BE-003, 12-O-(7-(1,3-dioxo-isoindolin-2-yl)-heptyl)-berbamine]
improvement of anti-human K562 chronic myelogenous leukemia activity [4]: more than 5 fold | improvement of anti-K562/adr (drug-resistant chronic myelogenous leukemia) activity [5]: more than 6 fold | improvement of anti-RPMI8226 (multiple myeloma) cell activity [6]: ~6 fold | improvement of anti-Becap37 (human breast cancer cell) activity [7]: ~5 fold | improvement of anti-HepG2 (human hepatocellular carcinoma, HCC) activity [8]: ~5 fold | improvement of anti-MCF-7 (breast cancer) activity (MCF-7 (breast cancer)): ~6 fold | improvement of anti-MG63 (osteosarcomas) activity (MG63 (osteosarcomas)): ~8 fold | improvement of anti-MGC 803 (human gastric cancer cells) activity [9]: ~7 fold | improvement of anti-PANC-1 (pancreatic cancer) activity [10]: more than 6 fold
